Measured values: patent US5827895A, “Hexahydrolupulones useful as anticancer agents” (Regents of the University of Minnesota, priority 1996, dated 1998)
Converted amounts (≈) assume the structure as drawn. Read-outs that look alike come from different tables or passages of the source.

Tests used:
[1] = system: MCF-7 cells (human breast adenocarcinoma); test: Trypan blue exclusion assay, cytostatic activity, MCF-7; assay type: cell-based; conditions: MCF7, incubation 48h, 3 experiments, read-out: ID50 (the source's name)
[2] = system: CEM cells (human acute lymphoblastic leukemia); test: Trypan blue exclusion assay, cytostatic activity, CEM; assay type: cell-based; conditions: CCRF-CEM, incubation 48h, 4 experiments, read-out: ID50 (the source's name)
[3] = system: CEM vinblastin resistant cells; test: Trypan blue exclusion assay, cytostatic activity, CEM vinblastin resistant; assay type: cell-based; conditions: Homo sapiens; CEM vin resistant; incubation 48h; 4 experiments; read-out: ID50 (the source's name)
[4] = system: Raji cells (human Burkitt lymphoma); test: Trypan blue exclusion assay, cytostatic activity, Raji; assay type: cell-based; conditions: incubation 24h, 4 experiments, read-out: ID50 (the source's name)
[5] = system: KB cells (human oral epidermoid carcinoma); test: Trypan blue exclusion assay, cytostatic activity, KB; assay type: cell-based; conditions: incubation 48h, 3 experiments, read-out: ID50 (the source's name)
[6] = system: HeLa S3 cells (human cervical epithelioid carcinoma); test: Trypan blue exclusion assay, cytostatic activity, HeLa S3; assay type: cell-based; conditions: incubation 24h, 3 experiments, read-out: ID50 (the source's name)
Staphylococcus Aureas = test: Minimum inhibitory concentration, Staphylococcus aureus; assay type: cell-based
[7] = system: M. tuberculosis (ATCC 27294); test: BACTEC drug susceptibility, M. tuberculosis; assay type: cell-based; conditions: Mycobacterium tuberculosis, ATCC27294
[8] = Determination of maximal tolerated dose (MTD), single intraperitoneal injection; conditions: mouse, in vivo, ip
Protocol: (§1) Eight groups of BDF1 mice (5 animals/group) were used to determine a maximal tolerated dose (MTD) for HHC.
(§2) All mice were weighed, the weight being used to determine blood volume for each animal. The amount of drug necessary to achieve a theoretical concentration of drug in the animal (e.g, 50, 100, 150 μM etc.) was calculated based on the formula: blood volume=8% body weight of the animal. Drug solutions were made using DMSO as the solvent and a single intraperitoneal injection of a volume of 100-120 μl was given. […] Based on the above, the MTD is determined to be at 200 μM (~6.5 mg/kg). To confirm the MTD, it is necessary to dose the animals with the predetermined MTD once a day for consecutive days following established experimental treatment times (i.e., 5 days for in vivo tumor inhibition studies).

BDF1 mice = test: as above; conditions: mouse, in vivo, ip
Protocol: as §1, §2

Leishmania tarentolae = test: Anti-protozoal activity, cell counts of Leishmania tarentolae; assay type: cell-based; conditions: for activity at 0.1 µM / activity at 0.25 µM / activity at 0.5 µM / activity at 1 µM / activity at 2.5 µM: Leishmania tarentolae, read-out: % control
Protocol: Leishmania tarentolae was grown in BHI (brain heart infusion; Difco) supplemented with 10 μg/ml of hemin. Leishmanial cells were counted by doing a 1:1 dilution of the cells with 3% formaldehyde/1×SSC (0.15 M NaCl/0.015 M sodium citrate) solution. Cells were seeded at log phase (0.5-1×10^6 cells/ml) in T-25 cm^2 flasks. Equal volumes of HHC at different concentrations (0.1, 0.25, 0.5, 1.0, 2.5 μM) were added to the cells. DMSO at the same volume as that used for HHC was included as solvent control. At each time point (6, 12, 18, 24, 32 hrs post-drug addition), cells were observed under the microscope for possible effect of HHC on Leishmanial motility. Aliquots of cells (100 μl) were removed from each flask at each time point, diluted as mentioned above and cell numbers were quantitated using a hemocytometer.

Listeria monocytogenes = conditions: U.S. Pat. Nos. 5,286,506; 5,455,038; cited from earlier work
[9] = Mannering et al.; cited from earlier work
E. Coli = test: Minimum inhibitory concentration, E. coli; conditions: Escherichia coli
Pseudomonas = test: Minimum inhibitory concentration, Pseudomonas
[10] = system: MRSA (Methicillin Resistant Staphylococcus aureus); test: Patient isolates evaluated for antibiotic sensitivity, MRSA; conditions: for antibiotic sensitivity: threshold not given
[11] = system: OxaRSA (Oxacillin Resistant Staphylococcus aureus); test: Patient isolates evaluated for antibiotic sensitivity, OxaRSA
Protocol: HHC was also tested for effectiveness against various bacterial isolates obtained from human subjects.

[12] = Staphylococcus aureus, read-out: [HHC] (MIC)

CC(C)CCC1=C(O)C(C(=O)C(C)C)=C(O)C(CCC(C)C)(CCC(C)C)C1=O [HHC, hexahydrocolupulone]
IC50 [1]: 1230 nM | IC50 [2]: 1970 nM | IC50 [3]: 2610 nM | IC50 [4]: 2190 nM | IC50 [5]: 850 nM | IC50 [6]: 1210 nM | MIC (Staphylococcus Aureas; Staphylococcus Aureas, read-out: MIC): 5 µM | MIC (Staphylococcus Aureas; read-out: MIC, HHC positive control): 2.03 µg/mL | inhibition at 50 µM ([7]; 50 μM, read-out: inhibition of tuberculosis growth): > 99% | inhibition at 100 µM ([7]; 100 μM, read-out: inhibition of TB growth): 100% | MTD [8]: ~6.5 mg/kg | maximal tolerated dose (MTD) (BDF1 mice): 200 µM | cells/ml (Leishmania tarentolae; 0.1 μM, 6 hr): 2.65 no. of cells × 10^6 | cells/ml (Leishmania tarentolae; 0.1 μM, 12 hr): 6.58 no. of cells × 10^6 | cells/ml (Leishmania tarentolae; 0.1 μM, 18 hr): 12.1 no. of cells × 10^6 | cells/ml (Leishmania tarentolae; 0.1 μM, 24 hr): 21.2 no. of cells × 10^6 | cells/ml (Leishmania tarentolae; 0.1 μM, 32 hr): 43.9 no. of cells × 10^6 | cells/ml (Leishmania tarentolae; 0.25 μM, 6 hr): 3.0 no. of cells × 10^6 | cells/ml (Leishmania tarentolae; 0.25 μM, 12 hr): 7.35 no. of cells × 10^6 | cells/ml (Leishmania tarentolae; 0.25 μM, 18 hr): 12.7 no. of cells × 10^6 | cells/ml (Leishmania tarentolae; 0.25 μM, 24 hr): 19.72 no. of cells × 10^6 | cells/ml (Leishmania tarentolae; 0.25 μM, 32 hr): 40.1 no. of cells × 10^6 | cells/ml (Leishmania tarentolae; 0.5 μM, 6 hr): 2.43 no. of cells × 10^6 | cells/ml (Leishmania tarentolae; 0.5 μM, 12 hr): 5.13 no. of cells × 10^6 | cells/ml (Leishmania tarentolae; 0.5 μM, 18 hr): 9.22 no. of cells × 10^6 | cells/ml (Leishmania tarentolae; 0.5 μM, 24 hr): 14.2 no. of cells × 10^6 | cells/ml (Leishmania tarentolae; 0.5 μM, 32 hr): 29.2 no. of cells × 10^6 | cells/ml (Leishmania tarentolae; 1.0 μM, 6 hr): 2.09 no. of cells × 10^6 | cells/ml (Leishmania tarentolae; 1.0 μM, 12 hr): 2.53 no. of cells × 10^6 | cells/ml (Leishmania tarentolae; 1.0 μM, 18 hr): 2.55 no. of cells × 10^6 | cells/ml (Leishmania tarentolae; 1.0 μM, 24 hr): 2.9 no. of cells × 10^6 | cells/ml (Leishmania tarentolae; 1.0 μM, 32 hr): 3.4 no. of cells × 10^6 | cells/ml (Leishmania tarentolae; 2.5 μM, 6 hr): 1.81 no. of cells × 10^6 | cells/ml (Leishmania tarentolae; 2.5 μM, 12 hr): 3.03 no. of cells × 10^6 | cells/ml (Leishmania tarentolae; 2.5 μM, 18 hr): 3.38 no. of cells × 10^6 | cells/ml (Leishmania tarentolae; 2.5 μM, 24 hr): 2.13 no. of cells × 10^6 | cells/ml (Leishmania tarentolae; 2.5 μM, 32 hr): 2.82 no. of cells × 10^6 | activity at 0.1 µM (Leishmania tarentolae; 0.1 μM, 6 hr): 76.4% | activity at 0.1 µM (Leishmania tarentolae; 0.1 μM, 12 hr): 96.6% | activity at 0.1 µM (Leishmania tarentolae; 0.1 μM, 18 hr): 96.8% | activity at 0.1 µM (Leishmania tarentolae; 0.1 μM, 24 hr): 118% | activity at 0.1 µM (Leishmania tarentolae; 0.1 μM, 32 hr): 114% | activity at 0.25 µM (Leishmania tarentolae; 0.25 μM, 6 hr): 86.5% | activity at 0.25 µM (Leishmania tarentolae; 0.25 μM, 12 hr): 103% | activity at 0.25 µM (Leishmania tarentolae; 0.25 μM, 18 hr): 101% | activity at 0.25 µM (Leishmania tarentolae; 0.25 μM, 24 hr): 110% | activity at 0.25 µM (Leishmania tarentolae; 0.25 μM, 32 hr): 104% | activity at 0.5 µM (Leishmania tarentolae; 0.5 μM, 6 hr): 70% | activity at 0.5 µM (Leishmania tarentolae; 0.5 μM, 12 hr): 72.1% | activity at 0.5 µM (Leishmania tarentolae; 0.5 μM, 18 hr): 73.8% | activity at 0.5 µM (Leishmania tarentolae; 0.5 μM, 24 hr): 79.3% | activity at 0.5 µM (Leishmania tarentolae; 0.5 μM, 32 hr): 75.6% | activity at 1 µM (Leishmania tarentolae; 1.0 μM, 6 hr): 60.2% | activity at 1 µM (Leishmania tarentolae; 1.0 μM, 12 hr): 35.5% | activity at 1 µM (Leishmania tarentolae; 1.0 μM, 18 hr): 20.4% | activity at 1 µM (Leishmania tarentolae; 1.0 μM, 24 hr): 16.2% | activity at 1 µM (Leishmania tarentolae; 1.0 μM, 32 hr): 8.8% | activity at 2.5 µM (Leishmania tarentolae; 2.5 μM, 6 hr): 52.2% | activity at 2.5 µM (Leishmania tarentolae; 2.5 μM, 12 hr): 42.6% | activity at 2.5 µM (Leishmania tarentolae; 2.5 μM, 18 hr): 27% | activity at 2.5 µM (Leishmania tarentolae; 2.5 μM, 24 hr): 11.9% | activity at 2.5 µM (Leishmania tarentolae; 2.5 μM, 32 hr): 7.3% | growth inhibition of food pathogens (Listeria monocytogenes): can inhibit the growth of food pathogens, such as Listeria monocytogenes | activity relative to non-hydrogenated parent [9]: more active than colupulone | MIC (E. Coli): > 100 µM | MIC (E. Coli; read-out: MIC, HHC negative control): 100 µg/mL | MIC (Pseudomonas): > 100 µM | MIC [10, 12]: 1.01 µg/mL (≈ 2.5 µM) | antibiotic sensitivity ([10]; patient D): S | [HHC] (MIC) ([10]; patient E): 1.015 µg/mL | antibiotic sensitivity ([10]; patient E): S | [HHC] (MIC) ([10]; patient F): 1.015 µg/mL | antibiotic sensitivity ([10]; patient F): S | MIC [11, 12]: 1.01 µg/mL (≈ 2.5 µM) | antibiotic sensitivity ([11]; patient G, OxaRSA, threshold not given): S
